Data: patent US20090012148A1, “REDUCING CELLULAR CHOLESTEROL LEVELS AND/OR TREATING OR PREVENTING PHOSPHOLIPIDOSIS” (priority 2005, published 2009)

Legend:
CT43 cells = experiment: Toxicity assay by cell count (Hoechst 33258); format: cell-based, Chinese hamster; details: 24 h
Method: To measure toxicity, we treated CT60 and CT43 cells with compounds at 5, 10 and 20 μM for 24 h. The cell number per well was compared to control cells treated with DMSO (FIG. 7). […] Compound 1-a-14 did cause a 50% reduction in cell number at 10 μM for CT60 and an 80% reduction for CT43 cells. Compounds 1-a-4, 5, 6, 8 and 13 were partially toxic as indicated by 20-30% reduction in cell number after 24 h at 10 μM. Procedure Using Cell Count Assay: Compounds were added to CT60 and CT43 cells plated in 384 well plates at 0 (DMSO solvent control), 5, 10 and 20 μM concentrations in quadruplicate using methods similar to the dose dependence assay, except that the cells were stained with Hoechst 33258 nuclear stain. The final DMSO concentration in each well was 0.2%. For the control cells an equivalent amount of DMSO was added to the cells. The cells were incubated for 24, 48 and 72 h. After each time period, cells were washed and then fixed with 1.5% PFA. After washing the cells three times with PBS, the nuclei of the cells were stained using 5 μg/ml Hoechst 33258 (25 mg/ml stock solution in DMSO) in PBS for 45 m at room temperature. Finally, cells were washed three times with PBS, and images were obtained using a Nikon 4× Plan Apo 0.2NA objective. For Hoechst imaging we used the same filter set as for filipin. We collected one 520×696 pixel image per well at 12 intensity bits per pixel. Each pixel is 3.125 by 3.125 μm in […] the object. Cells were counted by defining the standard area of single nuclei (˜200 μm^2) interactively for each plate using the Integrated Morphometry Analysis function of MetaMorph. The number of standard areas per object above a threshold was determined, and the total number of standard areas per image was used as the cell count. The percent reduction in the number of cells compared to DMSO control was calculated for each concentration and time.

CT60 cells = experiment: DiI-LDL uptake; format: cell-based, Chinese hamster; details: DiI-LDL 6 μg/ml, compounds 10 μM, 20 hours, ±SEM
Method: CT60 cells were grown to 70% confluency in 96 well special optics plates (Corning, Inc., Corning, N.Y.). After 24 hours, cells were incubated with DiI-LDL (6 μg/ml) and hit compounds (10 μM) in screening medium supplemented with 20 mM HEPES. Each compound was added to 8 wells and an equivalent amount of DMSO with DiI-LDL was added to control wells. After 20 h, cells were washed three times with PBS, fixed with 1.5% PFA for 20 min, and stained with 50 μg/ml filipin for 45 min. Images were acquired using the Discovery-1 automatic fluorescence microscope at 20× magnification. DiI-LDL images were acquired using 535 nm/40 nm excitation filter and 610 nm/60 nm band pass with a Chroma 51001bs DiChroic filter. Filipin images were acquired as described above. Images were acquired for 4 sites per well, yielding 32 images per compound. The DiI-LDL images were background and shade corrected as described above. A low threshold was set to define the cell area based on filipin images. Finally, the average DiI-LDL intensity was measured per cell area.
Cells were incubated with DiI-LDL (6 μg/ml) in the presence of compounds (10 μM) for 20 hours. The intensity per unit cell area was measured as described in Methods. Values are normalized to the intensity per cell area for control (solvent-treated) cells. Values are based on averages from 32 images from 8 wells for each condition. ±SEM.

## CCOc1cccc2cc(-c3csc(Nc4cccc(C(F)(F)F)c4)n3)c(=O)oc12 [Compound 1-a-14]
CT43 cells; 10 μM
  reduction in cell number: 80%

## CCN(CC)c1ccc(C=C2SC(=S)N(c3ccc(OC)cc3)C2=O)cc1 [Compound 2-a-3]
CT60 cells
  DiI Intensity/cell area Fraction of control: 0.62 ± 0.01 Fraction of control

## COc1ccccc1Nc1nc(Nc2ccccc2OC)nc(Nc2ccccc2OC)n1 [Compound 2-a-9]
CT60 cells
  DiI Intensity/cell area Fraction of control: 0.85 ± 0.01 Fraction of control

## FC(F)(F)COc1nc(NN=Cc2cccc(I)c2)nc(N(c2ccccc2)c2ccccc2)n1 [Compound 2-a-12]
CT43 cells; 20 μM
  reduction in the number of cells: 75%
CT60 cells
  DiI Intensity/cell area Fraction of control: 0.72 ± 0.01 Fraction of control

## O=[N+]([O-])c1cccc(C=NNc2nc(Nc3cccc4ccccc34)nc(N(c3ccccc3)c3ccccc3)n2)c1 [Compound 2-a-13]
CT60 cells
  DiI Intensity/cell area Fraction of control: 0.72 ± 0.01 Fraction of control

## C=CCN1C(=O)C(=Cc2cc(C)n(-c3ccccc3)c2C)C(C(=O)OC)=C1C [Compound 2-a-15]
CT60 cells
  DiI Intensity/cell area Fraction of control: 1.00 ± 0.01 Fraction of control
